Legend:
human OX2 receptor = biological target: T1, human OX2 receptor (Homo sapiens, UniProt O43614); experiment: [3H]-radioligand binding assay, OX2; parameters: made in house; host or cells: SF21 insect cells (baculovirus; P0 virus made in SF9); conditions: for Ki: [3H]-radioligand binding, human OX2 membranes, read-out: pKi average OX2 (converted)
T1 sequence (O43614 1-444): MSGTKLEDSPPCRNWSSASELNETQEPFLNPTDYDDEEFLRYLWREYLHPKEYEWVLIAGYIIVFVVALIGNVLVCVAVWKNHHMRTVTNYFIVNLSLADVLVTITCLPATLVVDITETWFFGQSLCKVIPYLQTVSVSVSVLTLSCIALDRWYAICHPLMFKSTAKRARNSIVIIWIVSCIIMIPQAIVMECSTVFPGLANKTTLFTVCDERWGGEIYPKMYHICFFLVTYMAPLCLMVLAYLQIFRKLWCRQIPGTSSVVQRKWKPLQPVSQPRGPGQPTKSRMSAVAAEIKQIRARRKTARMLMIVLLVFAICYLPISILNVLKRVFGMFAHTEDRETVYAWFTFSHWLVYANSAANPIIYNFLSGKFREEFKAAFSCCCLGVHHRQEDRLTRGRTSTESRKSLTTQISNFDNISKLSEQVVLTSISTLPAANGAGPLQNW
Description: (§1) Cloning, Baculovirus generation, large-scale infection of SF21 cells and membrane preparation. Human OX1 or OX2 receptor were cloned into Invitrogen's (ThermoFisher Scientific, UK) Bac-to-Bac Baculovirus Expression System. P0 baculovirus was generated by transfecting SF9 cells with bacmid DNA using Cellfectin® II transfection reagent (ThermoFisher Scientific, UK, Catalog number 10362-100). Following P0 generation P1 virus was then generated ready for large scale infection and membrane preparation. SF21 cells were grown in expression medium ESF921 (Expression Systems, USA, catalog number 96-001-01) supplemented with 10% heat-inactivated FBS and 1% Pen/Strep and were infected at a cell density of 2.5×10^6 cells/mL and a multiplicity of infection of 1.0 for both human OX1R and OX2R. Incubation was carried out at over 48 h in a shaking incubator set at 27° C. The cell culture was then centrifuged at 2,500 rcf for 10 min at 4° C. The pellets were resuspended in cold PBS supplemented with Roche's Complete EDTA-free protease inhibitor cocktail tablets (Roche Applied Sciences, catalog number 05056489001), 1 mM PMSF and 1 mM EDTA. The resuspended cell paste was then centrifuged at 3,273 rcf for 12 min at 4° C. The supernatant was discarded and the pellet frozen at −80° C. The cell pellet from a 4 L culture was resuspended in buffer containing 50 mM HEPES pH 7.5, 150 mM NaCl, 8 Roche EDTA-Free protease inhibitor cocktail tablets and 1 mM PMSF. The suspension was left stirring at rt for 1 h and then homogenised for 90 s at 9,500 rpm using a VDI 25 (VWR, USA) homogeniser. The cells were then lysed using a Microfluidiser processor M-110L Pneumatic (Microfluidics, USA) at 60 PSI and membranes collected by ultracentrifugation at 204.7 k×g for 1 h. The supernatant was discarded and the pellet was resuspended and homogenised in 90 s at 9,500 rpm in 50 mL (25 mL for each 2 L culture) of buffer containing 50 mM Hepes pH 7.5, 150 mM NaCl, 3 Roche EDTA-free protease inhibitor cocktail tablets and 1 mM PMSF. The resulting membranes were then stored at −80° C.
(§2) [^3H]-radioligand binding assay. After thawing, membrane homogenates were resuspended in the binding buffer (8.5 mM HEPES, pH 7.4, 1.3 mM CaCl2, 1.2 mM MgSO4, 118 mM NaCl, 4.7 mM KCl, 4 mM NaHCO3, 1.2 mM KH2PO4, 11 mM glucose) to a final assay concentration of 6.4 μg (OX1) or 1.4 μg (OX2) protein per well. Saturation isotherms were determined by the addition of various concentrations (0-30 nM) of [^3H]-4-(2,6-difluoro-4-methoxybenzyl)-2-(5,6-dimethoxypyridin-3-yl)-2H-1,2,4-benzothiadiazin-3(4H)-one 1,1-dioxide (Christopher et al, MedChemComm., 2015, 6, 947-955) in a total reaction volume of 250 μL for 90 min at rt. At the end of the incubation, membranes were filtered onto a 96-well GF/B filter pre-incubated with 0.5% polyethylenimine, with a Tomtec cell harvester and washed 5 times with 0.5 mL distilled water. Non-specific binding (NSB) was measured in the presence of 3.33 μM [4-(5-chloro-1,3-benzoxazol-2-yl)-7-methyl-1,4-diazepan-1-yl][5-methyl-2-(2H-1,2,3-triazol-2-yl)phenyl]methanone (Wertz et al, Angew. Chem. Int. Ed., 2011, 50, 11511-11515). Radioactivity on the filter was counted (1 min) on a Microbeta radiometric plate counter (Perkin Elmer) after addition of 50 μL of scintillation fluid (LabLogic: Part #SG-BXX-14). […] IC50 values were derived from the inhibition curve and the equilibrium dissociation constant (Ki) values were calculated using the Cheng-Prusoff equation.

human OX1 receptor = biological target: T2, human OX1 receptor (Homo sapiens, UniProt O43613); experiment: [3H]-radioligand binding assay, OX1; parameters: made in house; host or cells: SF21 insect cells (baculovirus; P0 virus made in SF9); conditions: for Ki: [3H]-radioligand binding, human OX1 membranes, read-out: pKi average OX1 (converted)
T2 sequence (O43613 1-425): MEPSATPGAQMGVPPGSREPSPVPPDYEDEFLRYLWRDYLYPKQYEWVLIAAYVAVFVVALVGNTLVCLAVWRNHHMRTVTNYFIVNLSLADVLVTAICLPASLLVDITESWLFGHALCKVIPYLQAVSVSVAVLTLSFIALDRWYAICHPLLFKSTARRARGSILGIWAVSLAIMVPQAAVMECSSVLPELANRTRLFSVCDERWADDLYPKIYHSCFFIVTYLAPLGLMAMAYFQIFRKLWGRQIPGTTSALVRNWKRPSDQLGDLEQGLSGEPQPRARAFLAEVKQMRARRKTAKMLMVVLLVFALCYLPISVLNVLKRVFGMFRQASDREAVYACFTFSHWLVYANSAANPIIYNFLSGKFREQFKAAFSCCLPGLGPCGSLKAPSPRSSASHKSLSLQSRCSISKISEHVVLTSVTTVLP
Description: as §1, §2

| Compound | Ki (human OX2 receptor) [nM] | Ki (human OX1 receptor) [nM] | Kd (human OX2 receptor; OX2 receptor membranes, saturation isotherms) [nM] | Kd (human OX1 receptor; OX1 receptor membranes, saturation isotherms) [nM] |
| --- | --- | --- | --- | --- |
| COc1ncc(C2CCc3c(F)cccc3N(Cc3c(F)cc(Br)cc3F)C2=O)cc1C(C)(F)F (single isomer, unassigned) [Example 11, 1-(4-bromo-2,6-difluorobenzyl)-3-[5-(1,1-difluoroethyl)-6-methoxypyridin-3-yl]-6-fluoro-1,3,4,5-tetrahydro-2H-1-benzazepin-2-one] | > 126 | 1.58 | – | – |
| COc1ncc(C2CCc3c(F)cccc3N(Cc3c(F)cc(Br)cc3F)C2=O)cc1S(C)(=O)=O (single isomer, unassigned) [Example 20, 1-(4-bromo-2,6-difluorobenzyl)-6-fluoro-3-[6-methoxy-5-(methylsulfonyl)pyridin-3-yl]-1,3,4,5-tetrahydro-2H-1-benzazepin-2-one] | > 631 | 200 | – | – |
| COCc1cc(F)c(CN2C(=O)C(c3cnc(C)c(C(C)(F)F)c3)CCc3c(F)cccc32)c(F)c1 (single isomer, unassigned) [Example 40, 3-[5-(1,1-difluoroethyl)-6-methylpyridin-3-yl]-1-[2,6-difluoro-4-(methoxymethyl)benzyl]-6-fluoro-1,3,4,5-tetrahydro-2H-1-benzazepin-2-one] | > 15.8 | 1.58 | – | – |

Results, then the compound that gave them:

| Ki (human OX2 receptor) [nM] | Ki (human OX1 receptor) [nM] | Kd (human OX2 receptor; OX2 receptor membranes, saturation isotherms) [nM] | Kd (human OX1 receptor; OX1 receptor membranes, saturation isotherms) [nM] | Compound |
| --- | --- | --- | --- | --- |
| > 501 | 1.26 | – | – | Cc1ncc(C2CCc3c(F)cccc3N(Cc3cc(C#N)ccc3F)C2=O)cc1C(C)(F)F (single isomer, unassigned) [Example 41, 3-({3-[5-(1,1-difluoroethyl)-6-methylpyridin-3-yl]-6-fluoro-2-oxo-2,3,4,5-tetrahydro-1H-1-benzazepin-1-yl}methyl)-4-fluorobenzonitrile] |
| – | – | 0.75 | 1.5 | COc1cc(F)c(CN2C(=O)N(c3cnc(OC)c(OC)c3)S(=O)(=O)c3ccccc32)c(F)c1 [[^3H]-4-(2,6-difluoro-4-methoxybenzyl)-2-(5,6-dimethoxypyridin-3-yl)-2H-1,2,4-benzothiadiazin-3(4H)-one 1,1-dioxide, reference compound] |

Source: patent publication US20210179578A1, “OX1 ANTAGONISTS” (Heptares Therapeutics Limited, priority 2017, published 2021)
